In brackets after ≈: the same amount, converted by molar mass. Entries after “also recorded” stand apart in the source; their conditions may differ. Like-named read-outs stand apart in the source and are kept apart here.
Legend:
[1] = test system: first-instar Heliothis virescens larvae; assay: Mortality and growth inhibition in first-instar Heliothis virescens larvae fed in an artificial diet; assay type: in vivo; details: for EC50 (concentration causing 50% growth inhibition): first-instar larvae, artificial diet, in parentheses 95% confidence limits; for LC50 (concentration causing 50% mortality): heliothis virescens, in vivo; for LC50 (concentration causing 50% mortality) / LC50: po; for LC50: Heliothis virescens, read-out: LC50 (concentration causing 50% mortality)
Description: Mortality and growth inhibition in first-instar Heliothis
virescens larvae fed azadirachtin and eight derivatives in an
^b LC50 values are the concentrations (ppm) causing 50%
^c EC50 values are the concentrations (PPM) causing 50% growth
^d Numbers in parentheses are the 95% confidence limits determined
using the methods of Litchfield and Wilcoxon, J. Pharmacol. Exp. Ther.

[2] = test system: fifth-instar Heliothis virescens larvae; assay: Pupal and adult development of fifth-instar larvae injected orally with non-irradiated compounds; assay type: in vivo; details: for mortality at 0.001 mg: Heliothis virescens, light or radiation study, po, read-out: % Mortality Prior to Adult Stage
Protocol: (§1) Individual larvae were injected per os on the first day of the fifth instar with 1.0 μg of one of the either irradiated or non-irradiated compounds dissolved in 1.0 μl of 75% aqueous ethanol.
Successful and unsuccessful pupal and adult development of fifthinstar
Heliothis Virescens larvae injected orally with 1.0 microgram of either
azadirachtin, 3deacetylazadirachtin, 22,23dihydroazadirachtin, or
2',3',22,23tetrahydroazadirachtin.

[3] = test system: fifth-instar Heliothis virescens larvae; assay: Relative activity of UV-irradiated compounds in inhibiting pupal development (pupation); assay type: in vivo; details: for Relative activity, inhibiting pupal development: relative to non-irradiated
Protocol: (§2) Azadirachtin and its derivatives listed above (1.0 mg/ml absolute ethanol) were placed individually in capped quartz NMR tubes (5×180 mm) and were irradiated with two UV germicidal lights (GE, G30T8, 200-280 nm, 30 W) 1.8 m from the source at room temperature for up to 400 h. The controls were identical samples protected from exposure to UV radiation by wrapping with aluminum foil. At selected time intervals, aliquots from both the controls (non-irradiated) and irradiated samples were removed for high-performance liquid chromatography (HPLC) analysis (vide infra) and bioassay.
as §1
(§3) Relative activity of azadirachtin, 3deacetylazadirachtin,
22,23dihydroazadirachtin, and 2',3',22,23tetrahydroazadirachtin, all of
which had been exposed for 15, 30, 90, 200, and 400 hours to UV radiation
inhibiting the pupal development of fifthinstar Heliothis virescens
(§4) larvae. Relative activity is defined as the percentage of larvae injected

[4] = test system: fifth-instar Heliothis virescens larvae; assay: Relative activity of UV-irradiated compounds in inhibiting adult development; assay type: in vivo; details: for Relative activity, inhibiting adult development: relative to non-irradiated
Protocol: as §2, §1, §3
22,23dihydroazadirachtin, 2',3',22,23tetrahydroazadirachtin, all of which
had been exposed for 15, 30, 90, 200, and 400 hours to UV radiation, in
inhibiting the adult development of fifthinstar Heliothis virescens
as §4
relative to the percentage injected with its nonirradiated counterpart

[5] = Stability to UV irradiation by reversed phase HPLC; assay type: physicochemical; details: for half-life / degraded at 90 h: absolute ethanol
Protocol: Stability of Azadirachtin derivatives was determined as follows:
as §2
Analytical reversed phase HPLC was performed on a phenyl (5 μm) column run isocratically with acetonitrile-water (3:7) (Yamasaki et al.) Peaks were detected at 214 nm. The irradiated samples were compared with their corresponding non-UV-irradiated controls by measuring the height of the peak eluting at the appropriate Rt for each irradiated compound relative to each one's non-irradiated control. Results are expressed as the percent of the initial sample concentration remaining relative to the control. Each time point was done in at least triplicate fashion.

[6] = test system: insects; assay: Antifeedant function; details: in vivo
[7] = test system: insects; details: Kubo & Klocke and other literature; cited from earlier work
[8] = test system: insect; details: Kubo & Klocke; cited from earlier work
[9] = 1.0 microgram per os, fifth instar, non-irradiated
[10] = 1.0 microgram per os, non-irradiated

Row | Compound | EC50 (concentration causing 50% growth inhibition) [1] | LC50 (concentration causing 50% mortality) [1] | LC50 [1] | Number Unsuccessful Larvae-Pupae [2, 9] | Number Unsuccessful Pupae-Adult [2, 9] | inhibition of pupation, in words [2, 10] | mortality at 0.001 mg [2] | Relative activity, inhibiting pupal development ([3]; 15 h UV) | Relative activity, inhibiting pupal development ([3]; 30 h UV) | activity retained, in words ([3]; 90 h UV) | Relative activity, inhibiting pupal development ([3]; 90 h UV) | ability to inhibit pupation, in words ([3]; 200 h UV) | Relative activity, inhibiting pupal development ([3]; 200 h UV) | ability to inhibit pupation, in words ([3]; 400 h UV) | Relative activity, inhibiting pupal development ([3]; 400 h UV) | Relative activity, inhibiting adult development ([4]; 15 h UV) | Relative activity, inhibiting adult development ([4]; 30 h UV) | Relative activity, inhibiting adult development ([4]; 90 h UV) | Relative activity, inhibiting adult development ([4]; 200 h UV) | Relative activity, inhibiting adult development ([4]; 400 h UV) | also measured
1 | 13,20-O, O-dicarbomethoxy-22,23-dihydroazadirachtin [Compound 6] | 29.0 (20.3-41.5) ppm | 90.0 (37.8-214.5) ppm | – | – | – | – | – | – | – | – | – | – | – | – | – | – | – | – | – | – | –
2 | 13-O-methylazadirachtin [Compound 5] | 5.00 (1.54-16.25) ppm | 25.0 (12.2-51.4) ppm | – | – | – | – | – | – | – | – | – | – | – | – | – | – | – | – | – | – | –
3 | 13O-acetylazadirachtin [Compound 4] | 0.18 (0.08-0.40) ppm | 0.95 (0.59-1.54) ppm | – | – | – | – | – | – | – | – | – | – | – | – | – | – | – | – | – | – | –
4 | C/C=C(\C)C(=O)O[C@H]1C[C@@H](OC(C)=O)[C@@]2(C(=O)OC)CO[C@H]3[C@@H](O)[C@@](C)([C@]45O[C@@]4(C)[C@H]4C[C@@H]5O[C@@H]5OC=C[C@@]54O)[C@H]4[C@]1(CO[C@]4(O)C(=O)OC)[C@@H]32 [Compound 1, azadirachtin] | 0.07 (0.05-0.10) ppm | – | 0.8 µg/mL (≈ 1.11 µM) | 5 | 0 | equally effective in inhibiting pupation | 98.7% | 98.6% | 98.9% | retained full activity | 85.7% | did decline | 74.2% | An even greater decline | 60.0% | 101.3% | 101.3% | 97.3% | 89.7% | 81.1% | Adults Deformed, % [2, 9]: 0.7%; Adults, % [2, 9]: 1.3%; Number Adults [2, 9]: 2; Number Adults Deformed [2, 9]: 1; Number Pupae [2, 9]: 10; Pupae, % [2, 9]: 6.7%; Unsuccessful Larvae-Pupae, % [2, 9]: 3.4%; Unsuccessful Pupae-Adult, % [2, 9]: 0%; activity retained ([3]; 400 h UV): approximately 50%; ability to inhibit pupation, in words ([3]; up to 90 h UV): not appreciably reduced; ability to inhibit larvae from reaching the adult stage, in words ([4]; 200 h UV): declined slightly; degradation, in words ([5]; 400 h UV): none of the three compounds remained in their original state; half-life ([5]; UV 200-280 nm, room temperature, read-out: T1/2 of UV degradation (converted)): 1500 min; UV stability, in words ([5]; UV exposure up to 400 h): UV-labile; reaction order of UV degradation, in words ([5]; UV irradiation): degraded in a first-order reaction; degraded at 90 h ([5]; 90 h UV, read-out: compound degraded): > 80%; antifeedant function, in words [6]: function as antifeedants; ecdysis inhibitory activity, in words [7]: potent ecdysis inhibitory activity; also recorded: the same ecdysis inhibitory activity
5 | C/C=C(\C)C(=O)OC1CC(O)C2(C(=O)OC)COC3C2C12COC(O)(C(=O)OC)C2C(C)(C12OC1(C)C1CC2OC2OC=CC21O)C3O (stereo not shown) [Compound 2, 3-deacetylazadirachtin] | – | – | 0.37 µg/mL (≈ 0.545 µM) | 13 | 4 | less effective | 94.1% | 115.2% | 135.0% | retained full activity | 139.5% | did decline | 86.8% | An even greater decline | 41.0% | 103.2% | 106.3% | 106.3% | 96.0% | 72.3% | activity retained ([3]; 400 h UV): approximately 50%; ability to inhibit pupation, in words ([3]; up to 90 h UV): not appreciably reduced; ability to inhibit larvae from reaching the adult stage, in words ([4]; 200 h UV): remained substantially unchanged until 400 h of irradiation; degradation, in words [5]: none of the three compounds remained in their original state; reaction order of UV degradation, in words [5]: degraded in a first-order reaction; degraded at 90 h ([5]; uv): > 80%; half-life ([5]; uv): 1500 min
6 | C/C=C(\C)C(=O)OC1CC(OC(C)=O)C2(C(=O)OC)COC3C2C12COC(O)(C(=O)OC)C2C(C)(C12OC1(C)C1CC2OC2OCCC21O)C3O (stereo not shown) [Compound 3, 22,23-dihydroazadirachtin] | – | – | 0.47 µg/mL (≈ 0.65 µM) | 13 | 4 | less effective | 96.6% | 113.1% | 104.6% | retained full activity | 100.0% | did decline | 72.7% | An even greater decline | 49.1% | 103.5% | 100.1% | 103.5% | 69.0% | 74.5% | activity retained ([3]; 400 h UV): approximately 50%; ability to inhibit pupation, in words ([3]; up to 90 h UV): not appreciably reduced; ability to inhibit larvae from reaching the adult stage, in words ([4]; 200 h UV): more so; degradation, in words [5]: none of the three compounds remained in their original state; reaction order of UV degradation, in words [5]: degraded in a first-order reaction; degraded at 90 h ([5]; uv): > 80%; half-life ([5]; uv): 1500 min
7 | COC(=O)C1(O)OCC23C(O)CC(OC(C)=O)C4(C(=O)OC)COC(C42)C(O)C(C)(C24OC2(C)C2CC4OC4OCCC42O)C13 (stereo not shown) [Compound 7, 1-detigloyl-22,23dihydroazadirachtin] | – | – | 2.4 µg/mL (≈ 3.75 µM) | – | – | – | – | – | – | – | – | – | – | – | – | – | – | – | – | – | –
8 | CCC(C)C(=O)OC1CC(OC(C)=O)C2(C(=O)OC)COC3C2C12COC(O)(C(=O)OC)C2C(C)(C12OC1(C)C1CC2OC2OCCC21O)C3O (stereo not shown) [Compound 8, 2',3',22,23-tetrahydroazadirachtin] | – | – | 0.3 µg/mL (≈ 0.414 µM) | 6 | 1 | equally effective in inhibiting pupation | 100% | 99.4% | 103.7% | – | 99.7% | most active in inhibiting pupation | 108.0% | its activity declined after 400 h of exposure, it was still more active than the other test compounds | 69.1% | 100.0% | 100.0% | 100.0% | 100.0% | 100.0% | growth inhibitory and lethal activity, in words ([1]; relative to azadirachtin): retaining full activity; also recorded: fully active; Number Pupae [2, 9]: 10; loss in activity with degradation, in words ([3]; 400 h UV): some loss in activity; ability to inhibit larvae from reaching the adult stage, in words ([4]; 400 h UV): fully active after 400 h of irradiation
9 | COC(=O)C1(O)OCC23C(OC(=O)C(C)(O)C(C)O)CC(OC(C)=O)C4(C(=O)OC)COC(C42)C(O)C(C)(C24OC2(C)C2CC4OC4OCCC42O)C13 (stereo not shown) [Compound 9, 2',3'-dihydroxy-2',3'22,23-tetrahydroazadirachtin] | – | – | 42 µg/mL (≈ 55.5 µM) | – | – | – | – | – | – | – | – | – | – | – | – | – | – | – | – | – | –
10 | C/C=C(\C)C(=O)O[C@@H]1C[C@H](O)[C@]23CO[C@H](C(=O)OC)[C@H]2[C@](C)([C@]24O[C@@]2(C)[C@H]2C[C@@H]4O[C@@H]4OC=C[C@@]42O)[C@H](O)[C@@H]2OC[C@@]1(C(=O)OC)[C@H]23 [deacetylazadirachtinol] | – | – | – | – | – | – | – | – | – | – | – | – | – | – | – | – | – | – | – | – | ecdysis inhibitory activity, in words [7]: the same ecdysis inhibitory activity; fold less active than azadirachtin as insect growth inhibitor [8]: about 2.5 fold
